Measurements published in PubChem BioAssay (NCI).
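Five compound concentrations were applied to cells in 96-well plates for 48 hours; endpoints were derived by simple linear interpolation of the resulting dose-response curve. Abbreviation: GI50, concentration required for 50% inhibition of growth. TGI: concentration producing complete growth inhibition.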

Key:
Experiment in all cases: NCI-60 cell line screen, 48 h
SK-MEL-28 melanoma = test system: SK-MEL-28 melanoma
HL-60(TB) leukemia = test system: HL-60(TB) leukemia
ACHN renal = test system: ACHN renal
SNB-75 CNS = test system: SNB-75 CNS
OVCAR-4 ovarian = test system: OVCAR-4 ovarian
CCRF-CEM leukemia = test system: CCRF-CEM leukemia
SNB-19 CNS = test system: SNB-19 CNS
EKVX NSCLC = test system: EKVX NSCLC
SK-OV-3 ovarian = test system: SK-OV-3 ovarian
UO-31 renal = test system: UO-31 renal

| Structure (SMILES) | GI50 (SK-MEL-28 melanoma) | TGI (SK-MEL-28 melanoma) | GI50 (HL-60(TB) leukemia) | TGI (HL-60(TB) leukemia) | GI50 (ACHN renal) | TGI (ACHN renal) | GI50 (SNB-75 CNS) | TGI (SNB-75 CNS) | GI50 (OVCAR-4 ovarian) | TGI (OVCAR-4 ovarian) | GI50 (CCRF-CEM leukemia) | TGI (CCRF-CEM leukemia) | GI50 (SNB-19 CNS) | TGI (SNB-19 CNS) | GI50 (EKVX NSCLC) | TGI (EKVX NSCLC) | GI50 (SK-OV-3 ovarian) | TGI (SK-OV-3 ovarian) | GI50 (UO-31 renal) | TGI (UO-31 renal) |
| --- | --- | --- | --- | --- | --- | --- | --- | --- | --- | --- | --- | --- | --- | --- | --- | --- | --- | --- | --- | --- |
| COc1ccc(-c2ccc(/C=N/n3c(COc4ccc(Cl)cc4)n[nH]c3=S)o2)c([N+](=O)[O-])c1 | 17.3 µM | > 100 µM | 14.8 µM | 44.3 µM | 17.2 µM | 39.6 µM | 37.4 µM | > 100 µM | 2.87 µM | 18.2 µM | 17.5 µM | 52 µM | 20.1 µM | 53.6 µM | 12.4 µM | 54.1 µM | 19.9 µM | 53.3 µM | 33.5 µM | > 100 µM |
| CCc1c[nH]c2ncnc(N3CC[C@@](N)(CNC(=O)c4ccc(F)cc4F)C3)c12 | 45.4 µM | > 100 µM | 38.7 µM | > 100 µM | 23.8 µM | > 100 µM | 16.3 µM | 77.5 µM | 77.2 µM | > 100 µM | 28.3 µM | > 96.4 µM | 44.8 µM | > 100 µM | 35 µM | > 100 µM | 32 µM | > 100 µM | 33.7 µM | > 100 µM |
| COc1cc2cc(Oc3ccc(NC(=O)c4ccc(Cl)c(C(F)(F)F)c4)cc3)c(C)nc2cc1OC | 30.3 µM | > 100 µM | 20.8 µM | 82 µM | 10.8 µM | > 100 µM | 16.4 µM | > 100 µM | 5.58 µM | > 100 µM | 7.56 µM | > 100 µM | 24.6 µM | > 100 µM | 5.76 µM | 83.3 µM | 66 µM | > 100 µM | 9.82 µM | > 100 µM |
| O=C(O)c1c[nH]cc1C(=O)O | – | – | – | > 100 µM | – | – | – | > 100 µM | – | > 100 µM | – | > 100 µM | – | > 100 µM | – | > 100 µM | – | > 100 µM | – | > 100 µM |
| COc1ccc2c(C(=O)O)cc3cc(OC)c(OC)cc3c2c1 | – | > 100 µM | – | > 100 µM | – | > 100 µM | – | > 100 µM | – | – | – | > 100 µM | – | > 100 µM | – | > 100 µM | – | > 100 µM | – | > 100 µM |
| CCOc1ccc(NC(=O)CC2SC(N)=NC2=O)cc1 (stereo unspecified) | – | > 100 µM | – | > 100 µM | – | > 100 µM | – | > 100 µM | – | > 100 µM | – | > 100 µM | – | > 100 µM | – | > 100 µM | – | – | – | > 100 µM |
| CN(C)CCNC(=O)c1ccc(Cl)c2c(Nc3ccc(S(N)(=O)=O)cc3)c3ccccc3nc12 | – | 9.38 µM | – | – | – | 10.9 µM | – | 4.72 µM | – | 6.22 µM | – | – | – | 14.5 µM | – | 17.7 µM | – | 10.1 µM | – | 11 µM |
| N#Cc1ccccc1NC(=O)c1ccccc1 | – | > 100 µM | – | – | – | > 100 µM | – | > 100 µM | – | > 100 µM | – | – | – | > 100 µM | – | > 100 µM | – | – | – | – |
| CS(=O)(=O)Nc1cc(-c2ccc3ncnc(Nc4ccc5c(cnn5Cc5ccc(F)cc5)c4)c3c2)cnc1Cl | 0.803 µM | 7.17 µM | 0.435 µM | 2.75 µM | 2.99 µM | > 100 µM | 0.211 µM | 2.97 µM | 3.09 µM | 44 µM | 0.822 µM | > 100 µM | 1.81 µM | 12.2 µM | 2.21 µM | 18.4 µM | 1.54 µM | 5.85 µM | – | – |
| N/N=C(\Cc1ccccc1)NN=C(N)N | – | > 100 µM | – | > 100 µM | – | > 100 µM | – | > 100 µM | – | > 100 µM | – | > 100 µM | – | – | – | > 100 µM | – | > 100 µM | – | > 100 µM |
| N#CC1C(N)=NNC12Nc1ccccc1N2 (stereo unspecified) | 27.9 µM | > 100 µM | 52.4 µM | > 100 µM | 34.9 µM | > 100 µM | 24.8 µM | > 100 µM | 18 µM | 92.3 µM | – | – | 17.8 µM | 91 µM | 14.9 µM | 64.6 µM | 30 µM | > 100 µM | 11.5 µM | 84.9 µM |
| O=C(Cc1ccccc1)N/N=C(\C1=Nc2ccc([N+](=O)[O-])cc2NC1O)C(O)c1ccc([N+](=O)[O-])cc1 (stereo unspecified) | – | – | – | > 100 µM | – | > 100 µM | – | > 100 µM | – | – | – | > 100 µM | – | > 100 µM | – | > 100 µM | – | > 100 µM | – | > 100 µM |
| O=C1C(=O)N(C2C3CC4CC(C3)CC2C4)C(=O)C(=O)C1c1nc2ccccc2o1 (stereo unspecified) | – | > 100 µM | – | – | – | > 100 µM | – | > 100 µM | – | > 100 µM | – | – | – | > 100 µM | – | > 100 µM | – | > 100 µM | – | > 100 µM |
